{"source": "patent EP0517160B1", "about": "“Extended-release ophthalmic preparations” (INVERNI DELLA BEFFA S.P.A., priority 1991, dated 1992)", "origin": "cited, not measured here", "data": [{"smiles": "C=CC1(C)CC(=O)C2(O)C(C)(O1)C(OC(C)=O)C(O)C1C(C)(C)CCC(O)C12C", "note": "(stereo not drawn) [forskoline, 7β-acetoxy-8,13-epoxy-1α,6β,9α-trihydroxy-labd-14-en-11-one]", "values": [{"measurement": "maximum of forskoline that dissolves", "setting": "poloxamer 407 25% w/v in water, at 5°C", "result": 0.12, "unit": "%"}, {"measurement": "solubility in water (in words)", "setting": "water", "result": "pratically insoluble in water"}]}]}
